Laboratory results: paper PMC8194506 (Antiviral research, 2020)

Details: guinea pig, in vivo

`CCN(CC)CCOc1ccc2c(c1)C(=O)c1cc(OCCN(CC)CC)ccc1-2` [Tilorone] showed a well tolerated dose of no more than 60 mg/kg.
